Laboratory results reported in US9096592B2, “Bicyclic aza heterocycles, and use thereof” (BAYER INTELLECTUAL PROPERTY GMBH, priority 2010, dated 2015).

Test system: aorta rings
Assay: Vasorelaxant action in vitro (phenylephrine-contracted rabbit aorta rings, organ bath)
Details: Oryctolagus cuniculus; concentration needed to reduce the phenylephrine contraction of rabbit aorta rings by 50%
Method: B-1. Vasorelaxant Action In Vitro
Rabbits are stunned by a blow to the neck and exsanguinated. The aorta is removed, freed from adhering tissue and divided into rings of width 1.5 mm, which are placed individually under prestress into 5 ml organ baths with carbogen-sparged Krebs-Henseleit solution at 37° C. having the following composition (each mM): sodium chloride 119; potassium chloride: 4.8; calcium chloride dihydrate: 1; magnesium sulfate heptahydrate: 1.4; potassium dihydrogenphosphate: 1.2; sodium hydrogencarbonate: 25; glucose: 10. The contractile force is determined with Statham UC2 cells, amplified and digitalized using A/D transducers (DAS-1802 HC, Keithley Instruments Munich), and recorded in parallel on linear recorders. To obtain a contraction, phenylephrine is added to the bath cumulatively in increasing concentration. After several control cycles, the substance to be studied is added in increasing dosage each time in every further run, and the magnitude of the contraction is compared with the magnitude of the contraction attained in the last preceding run. This is used to calculate the concentration needed to reduce the magnitude of the control value by 50% (IC50 value). The standard administration volume is 5 μl; the DMSO content in the bath solution corresponds to 0.1%.

Row | Compound | IC50
1 | Nc1nc(-c2nn(Cc3ccccc3F)c3ncccc23)nc2cccc(Cl)c12 [Example 7, 5-Chloro-2-[1-(2-fluorobenzyl)-1H-pyrazolo[3,4-b]pyridin-3-yl]quinazolin-4-amine] | 1090 nM
2 | Nc1nc(-c2nn(Cc3ccccc3F)c3ncccc23)nc2sccc12 [Example 12, 2-[1-(2-Fluorobenzyl)-1H-pyrazolo[3,4-b]pyridin-3-yl]thieno[2,3-d]pyrimidin-4-amine] | 284 nM
3 | Nc1nc(-c2nn(Cc3ccccc3F)c3ncccc23)nc2onc(C(F)(F)F)c12 [Example 15, 6-[1-(2-Fluorobenzyl)-1H-pyrazolo[3,4-b]pyridin-3-yl]-3-(trifluoromethyl)[1,2]oxazolo[5,4-d]pyrimidin-4-amine] | 730 nM
4 | Nc1nc(-c2nn(Cc3ccccc3F)c3ncccc23)nc2[nH]c(=S)[nH]c12 [Example 28, 6-Amino-2-[1-(2-fluorobenzyl)-1H-pyrazolo[3,4-b]pyridin-3-yl]-7,9-dihydro-8H-purine-8-thione] | 800 nM
5 | Nc1nc(-c2nn(Cc3ccccc3F)c3ncccc23)nc2[nH]c(=O)c(C(F)(F)F)nc12 [Example 50, 4-Amino-2-[1-(2-fluorobenzyl)-1H-pyrazolo[3,4-b]pyridin-3-yl]-6-(trifluoromethyl)pteridin-7(8H)-one] | 1390 nM
6 | Nc1nc(-c2nn(Cc3ccccc3F)c3ncccc23)nc2[nH]nnc12 [Example 53, 5-[1-(2-Fluorobenzyl)-1H-pyrazolo[3,4-b]pyridin-3-yl]-3H-[1,2,3]triazolo[4,5-d]pyrimidin-7-amine] | 424 nM

Now those with a lower IC50, led by results:

Row | IC50 | Compound
7 | 49 nM | CC(C)(O)Cn1c(=O)[nH]c2nc(-c3nn(Cc4ccccc4F)c4ncccc34)nc(N)c21 [Example 2, 6-Amino-2-[1-(2-fluorobenzyl)-1H-pyrazolo[3,4-b]pyridin-3-yl]-7-(2-hydroxy-2-methylpropyl)-7,9-dihydro-8H-purin-8-one]
8 | 246 nM | Cc1nsc2nc(-c3nn(Cc4ccccc4F)c4ncccc34)nc(N)c12 [Example 13, 6-[1-(2-Fluorobenzyl)-1H-pyrazolo[3,4-b]pyridin-3-yl]-3-methyl[1,2]thiazolo[5,4-d]pyrimidin-4-amine]
9 | 233 nM | Nc1nc(-c2nn(Cc3ccccc3F)c3ncccc23)nc2[nH]nc(OCCO)c12 [Example 21, 2-({4-Amino-6-[1-(2-fluorobenzyl)-1H-pyrazolo[3,4-b]pyridin-3-yl]-1H-pyrazolo[3,4-d]pyrimidin-3-yl}oxy)ethanol]
10 | 197 nM | CC1=Nc2c(N)nc(-c3nn(Cc4ccccc4F)c4ncccc34)nc2NCC1 [Example 23, 2-[1-(2-Fluorobenzyl)-1H-pyrazolo[3,4-b]pyridin-3-yl]-6-methyl-8,9-dihydro-7H-pyrimido[4,5-b][1,4]diazepin-4-amine]
11 | 31 nM | CSc1nc2c(N)nc(-c3nn(Cc4ccccc4F)c4ncccc34)nc2[nH]1 [Example 29, 2-[1-(2-Fluorobenzyl)-1H-pyrazolo[3,4-b]pyridin-3-yl]-8-(methylsulfanyl)-7H-purin-6-amine]
12 | 83 nM | Nc1nc(-c2nn(Cc3ccccc3F)c3ncccc23)nc2[nH]c(=O)n(CC(F)(F)F)c12 [Example 44, 6-Amino-2-[1-(2-fluorobenzyl)-1H-pyrazolo[3,4-b]pyridin-3-yl]-7-(2,2,2-trifluoroethyl)-7,9-dihydro-8H-purin-8-one]
13 | 41 nM | O=c1[nH]c2nc(-c3nn(Cc4ccccc4F)c4ncccc34)ncc2n1CC(F)(F)F [Example 45, 2-[1-(2-Fluorobenzyl)-1H-pyrazolo[3,4-b]pyridin-3-yl]-7-(2,2,2-trifluoroethyl)-7,9-dihydro-8H-purin-8-one]
14 | 126 nM | Nc1nc(-c2nn(Cc3ccccc3F)c3ncccc23)nc2nccnc12 [Example 52, 2-[1-(2-Fluorobenzyl)-1H-pyrazolo[3,4-b]pyridin-3-yl]pteridin-4-amine]
15 | 39 nM | Nc1nc(-c2nn(Cc3ccccc3F)c3ncccc23)nc2nsnc12 [Example 57, 5-[1-(2-Fluorobenzyl)-1H-pyrazolo[3,4-b]pyridin-3-yl][1,2,5]thiadiazolo[3,4-d]pyrimidin-7-amine]
